Values of other authors, collected in article PMC9546217, “Exploring novel nitrofuranyl sulfonohydrazides as anti‐Leishmania and anti‐cancer agents: Synthesis, in vitro efficacy and hit identification” (Chemical Biology & Drug Design, 2022).

Test system: Pseudomonas aeruginosa (ATCC 27853)
Design: method as in Alsaeedi et al., [2015]
Settings: diffusion method; ref Alsaeedi et al., [2015]; cited from earlier work

Cc1ccc(S(=O)(=O)N/N=C/c2ccc([N+](=O)[O-])o2)cc1 [2c, (E)-4-Methyl-N'-[(5-nitrofuran-2-yl)methylene]benzenesulfonohydrazide]
antimicrobial activity (inhibition zone): no activity
